Common to all, as to assay: DTP human tumour cell line panel, 48 h
Experiment [1] concerns MCF7.
Experiment [2] has as its system HCC 2998.
The test system of experiment [3] is UO-31.
Experiment [4] concerns HCT-15.
Experiment [5] has as its system SNB-19.
For experiment [6], the system named is CCRF-CEM.
Experiment [7] relates to SK-MEL-2.
For experiment [8], the system named is SK-OV-3.
The subject of experiment [9] is CAKI-1.
The subject of experiment [10] is NCI-H522.
Experiment [11] relates to K562.
In experiment [12] the test system is MDA-N.
Experiment [13] has as its system NCI/ADR-RES.
Experiment [14] concerns A549.
Experiment [15] relates to NCI-H23.
Experiment [16] concerns SF-295.
In experiment [17] the test system is TK-10.
Experiment [18] concerns U-251.
Experiment [19] relates to SF-539.
Experiment [20] relates to NCI-H226.

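Step 1: Grow cells in 96-well plates. Step 2: Expose to compound for 48 hours at 5 concentrations. Step 3: Interpolate endpoints linearly; if unreached, use highest concentration. Abbreviation: GI50, concentration required for 50% inhibition of growth.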 Calls of active or inactive are those of the source. Rule as the data show it: active = GI50 up to about 1.1 µM and inactive = higher.

Regarding `COc1cc2c(cc1OC)C1CN3CCCC3C(O)C1c1cc(OC)c(OC)cc1-2` (centres undefined), the GI50 in [1] was > 100 µM (inactive); in [2] it was > 100 µM (inactive); in experiment [3] it was > 100 µM (inactive); in experiment [4], greater than 100 µM; in experiment [5] it was > 100 µM (inactive); in [6], 69.3 µM (inactive). The GI50 in [7], in experiment [8], in experiment [9], in experiment [10], in [11] and in experiment [12] was > 100 µM (inactive) each time. Moreover, the GI50 in experiment [13], in experiment [14], in experiment [15], in experiment [16], in experiment [17] and in [18] was > 100 µM (inactive) each time.

Take `Cc1cc(S(=O)(=O)N/C(=C(\C#N)C(=O)c2ccccc2)[n+]2ccc(N(C)C)cc2)c([S-])cc1Cl`: the GI50 was > 100 µM (inactive) in [1]; > 100 µM (inactive) in experiment [3]; greater than 100 µM in experiment [4]; > 100 µM (inactive) in experiment [5]; > 100 µM (inactive) in experiment [6]; 83 µM (inactive) in experiment [7]. Moreover, the GI50 is > 100 µM (inactive) in experiment [8]; > 100 µM (inactive) in experiment [9]; > 100 µM (inactive) in experiment [19]; 35.6 µM (inactive) in experiment [10]; > 100 µM (inactive) in experiment [20]; > 100 µM (inactive) in experiment [11]. For the same compound, the GI50 in experiment [12] is > 100 µM (inactive); in [13], > 100 µM (inactive); in [14], > 100 µM (inactive); in experiment [15] it was > 100 µM (inactive); in experiment [16], > 100 µM (inactive); in [17], 53.6 µM (inactive). Also, the GI50 in [18] is > 100 µM (inactive).

With `CN(C)NC(=S)Nc1ccccc1Br`, the GI50 in [1] is > 100 µM (inactive); in experiment [3], > 100 µM (inactive); in [4], greater than 100 µM; in experiment [5], > 100 µM (inactive); in experiment [6], > 100 µM (inactive); in [7], > 100 µM (inactive). For the same compound, the GI50 in [8], in [9], in [19], in [10], in [20] and in experiment [11] was > 100 µM (inactive) throughout. Besides, the GI50 in experiment [12], in experiment [13], in experiment [14], in [15], in [16] and in experiment [17] was > 100 µM (inactive) each time. Moreover, the GI50 in experiment [18] is > 100 µM (inactive).

`O=C1NC(N2CCOCC2)=N/C1=C\c1ccccc1O`: the GI50 in experiment [1] was > 100 µM (inactive); in [3], > 100 µM (inactive); in experiment [4] it was greater than 100 µM; in [5] it was > 100 µM (inactive); in experiment [6], > 100 µM (inactive); in experiment [7], > 100 µM (inactive). For the same compound, the GI50 in [8], in experiment [9], in experiment [19], in experiment [10], in [20] and in experiment [11] was > 100 µM (inactive) throughout. Further, the GI50 in experiment [12], in experiment [13], in [14], in experiment [15], in experiment [16] and in [17] was > 100 µM (inactive) each time. Also, the GI50 in [18] was > 100 µM (inactive).

Regarding `COC(=O)CCCC(=O)NC1=C(NCc2ccccc2)C(=O)c2ccccc2C1=O`, the GI50 in experiment [1] is 30.3 µM (inactive); in experiment [2] it was > 100 µM (inactive); in experiment [3], > 100 µM (inactive); in experiment [4], 52.4 µM; in experiment [5] it was > 100 µM (inactive); in [6] it was 36.3 µM (inactive). In addition, the GI50 in [7] is 87.5 µM (inactive); in experiment [8], 45.5 µM (inactive); in [9], > 100 µM (inactive); in experiment [19] it was 36.4 µM (inactive); in experiment [10], 70.5 µM (inactive); in experiment [11] it was 45.6 µM (inactive). Besides, the GI50 in [12] was 41.4 µM (inactive); in experiment [13] it was 27.3 µM (inactive); in experiment [14], 56.5 µM (inactive); in experiment [15], 53.2 µM (inactive); in experiment [16], > 10 µM (inactive); in [17], > 100 µM (inactive). In addition, the GI50 in experiment [18] was > 100 µM (inactive).

Regarding `CCNCCCNc1c2ccccc2nc2ccccc12`, the GI50 was 0.193 µM (active) in experiment [1]; 0.239 µM (active) in experiment [2]; 0.334 µM (active) in experiment [3]; 0.366 µM in [4]; 0.499 µM (active) in experiment [5]; 0.514 µM (active) in [6]. The concentration for 50% growth inhibition (GI50) in [7] is 0.518 µM (active); in experiment [8] it was 1.33 µM (inactive); in [9], 0.334 µM (active); in experiment [19], 0.279 µM (active); in experiment [10] it was 0.183 µM (active); in [11], 0.329 µM (active). In addition, the 50% growth inhibitory concentration (GI50) is 0.356 µM (active) in experiment [12]; 0.916 µM (active) in experiment [13]; 0.64 µM (active) in experiment [14]; 0.446 µM (active) in experiment [15]; 0.498 µM (active) in experiment [16]; 0.571 µM (active) in [17]. The GI50 in [18] is 0.435 µM (active).

Turning to `COc1ccc2c3c1O[C@H]1C(O)CCC4(O)[C@@H](C2)NCC[C@]314` (some centres undefined), the GI50 in experiment [1] was > 100 µM (inactive); in experiment [3], > 100 µM (inactive); in [4], greater than 100 µM; in [5] it was > 100 µM (inactive); in experiment [6], > 100 µM (inactive); in experiment [7], > 100 µM (inactive). The GI50 in experiment [8], in experiment [9], in experiment [19], in [10], in experiment [20] and in experiment [11] was > 100 µM (inactive) throughout. Besides, the GI50 in experiment [12], in [13], in experiment [14], in [15], in experiment [16] and in experiment [17] was > 100 µM (inactive) throughout. For the same compound, in experiment [18], the GI50 was > 100 µM (inactive).

Regarding `Cc1cc(S(=O)(=O)N=C2N(Cc3ccccc3)CCN2Cc2ccccc2)c(S)cc1Cl`, the GI50 was > 100 µM (inactive) in [1]; > 100 µM (inactive) in experiment [2]; 17.7 µM (inactive) in experiment [3]; greater than 100 µM in experiment [4]; > 100 µM (inactive) in experiment [5]; > 100 µM (inactive) in experiment [6]. Moreover, the GI50 in experiment [8] is > 100 µM (inactive); in [9], > 100 µM (inactive); in experiment [19] it was > 100 µM (inactive); in experiment [10], 40.6 µM (inactive); in [20] it was 85.5 µM (inactive); in experiment [11], > 100 µM (inactive). The GI50 is > 100 µM (inactive) in experiment [12]; > 100 µM (inactive) in experiment [13]; > 100 µM (inactive) in experiment [14]; > 100 µM (inactive) in experiment [15]; 48.9 µM (inactive) in experiment [16]; > 100 µM (inactive) in experiment [17]. Further, in [18], the GI50 is 54.8 µM (inactive).

As to `Cc1cc(Cl)ccc1NC(=O)/C(Cl)=C(/Cl)C(=O)O`, the GI50 was 21.4 µM (inactive) in [1]; 17.9 µM (inactive) in experiment [2]; > 100 µM (inactive) in [3]; 18.7 µM in [4]; > 100 µM (inactive) in [5]; 17.3 µM (inactive) in [6]. For the same compound, the GI50 in experiment [8] is > 100 µM (inactive); in [9] it was 18.3 µM (inactive); in experiment [19] it was 23 µM (inactive); in experiment [10], 15.4 µM (inactive); in [11], 31.8 µM (inactive); in experiment [12] it was 24.1 µM (inactive). For the same compound, the GI50 in experiment [13] is 29 µM (inactive); in [14], 48.8 µM (inactive); in experiment [15], 29.3 µM (inactive); in experiment [16], > 100 µM (inactive); in experiment [17], 17.5 µM (inactive); in experiment [18], 19 µM (inactive).

Turning to `Cc1cc2c(c(S(=O)(=O)c3ccccc3[N+](=O)[O-])c1)NCCC2`, the GI50 was 58.6 µM (inactive) in experiment [1]; 91.2 µM (inactive) in experiment [2]; 37.4 µM (inactive) in [3]; 33.7 µM in experiment [4]; > 100 µM (inactive) in experiment [5]; 51.4 µM (inactive) in experiment [7]. Besides, the GI50 in [8] is > 100 µM (inactive); in experiment [19] it was > 100 µM (inactive); in [10], 16.1 µM (inactive); in [20] it was > 100 µM (inactive); in experiment [12], 34.8 µM (inactive); in [13], 50 µM (inactive). Besides, the GI50 in experiment [14] was 40.3 µM (inactive); in experiment [15] it was 59.7 µM (inactive); in experiment [16], 55.6 µM (inactive); in experiment [17], > 100 µM (inactive); in [18], 83.9 µM (inactive).

With `CCOC1Oc2ccccc2-c2nc(N)ncc21` (centres undefined), the GI50 in experiment [1] is 37.4 µM (inactive); in experiment [3], 43.5 µM (inactive); in [4] it was 14 µM; in experiment [5], > 100 µM (inactive); in experiment [6], 36.8 µM (inactive); in [7] it was > 100 µM (inactive). The GI50 in [8] is > 100 µM (inactive); in experiment [9] it was 30.6 µM (inactive); in [19] it was 33.4 µM (inactive); in experiment [10], 23.4 µM (inactive); in [20], 61.9 µM (inactive); in experiment [12], 31.6 µM (inactive). The GI50 was 39.7 µM (inactive) in [13]; 45.8 µM (inactive) in experiment [14]; > 100 µM (inactive) in [15]; 34.1 µM (inactive) in experiment [16]; 33.2 µM (inactive) in experiment [17]; 65.6 µM (inactive) in experiment [18].

What is called GI50 is the concentration at which growth is held to half of that of the control.

These data come from ChEMBL document CHEMBL1201862, “PubChem BioAssay data set” (2004).
